20 molecules from patent publication US10329295B2, “Pyrrolotriazine inhibitors of IRAK4 activity” (MERCK SHARP & DOHME CORP., priority 2015, dated 2019) can be followed below.

Where a name gives a salt, the structure may show the parent alone.

GST tagged IRAK4, sequence (Q9NWZ3 whole entry): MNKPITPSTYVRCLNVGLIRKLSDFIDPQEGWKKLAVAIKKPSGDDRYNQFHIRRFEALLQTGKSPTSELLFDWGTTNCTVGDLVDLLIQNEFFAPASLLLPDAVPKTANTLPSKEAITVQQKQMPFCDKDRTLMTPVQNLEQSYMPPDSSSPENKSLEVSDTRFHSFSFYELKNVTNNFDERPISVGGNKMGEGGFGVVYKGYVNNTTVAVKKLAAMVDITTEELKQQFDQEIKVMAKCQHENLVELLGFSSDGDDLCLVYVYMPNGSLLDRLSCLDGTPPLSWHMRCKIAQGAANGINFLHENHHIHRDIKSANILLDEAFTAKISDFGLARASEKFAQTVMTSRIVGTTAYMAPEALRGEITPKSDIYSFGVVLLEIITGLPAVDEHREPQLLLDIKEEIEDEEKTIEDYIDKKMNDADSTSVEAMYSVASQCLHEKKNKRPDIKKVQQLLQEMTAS

This assay has as its target GST tagged IRAK4 (Homo sapiens (Human), UniProt Q9NWZ3). The assay is described as follows: IRAK4 Kinase Assay (IMAP fluorescence polarization). To be noted: 0.5 nM GST tagged IRAK4, 100 μM ATP, 30 minutes at 25° C. Type of assay: biochemical. The method in brief: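 Reactions contained 0.5 nM GST-IRAK4, 100 nM fluorescent peptide substrate and 100 μM ATP in 10 mM Tris-HCl pH 7.2 with 1 mM MgCl2, and were started with ATP. After 30 minutes at 25° C they were stopped with IMAP reagent. Substrate phosphorylation was read as the change in fluorescence polarization.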
(In fluorescence polarisation assays a small probe gives low polarisation when free and higher when bound to something large.)
In general, IC50 refers to the concentration that gives 50% inhibition. For `N#Cc1ccccc1NC(=O)c1ccc2cnc(N[C@@H]3CCCC[C@@H]3O)nn12` [Example 71, N-(2-cyanophenyl)-2-{[(1R,2S)-2-hydroxycyclohexyl]amino}-pyrrolo[2,1-f][1,2,4]triazine-7-carboxamide], half-maximal inhibition (IC50) required 661 nM. With `O=C(Nc1ccsc1Cl)c1ccc2cnc(N3C[C@H]4CC[C@@H]3CN4)nn12` (single isomer, unassigned) [Example 54, N-(2-chlorothiophen-3-yl)-2-[(1S,4S)- or (1R,4R)-2,5-diazabicyclo[2.2.2]oct-2-yl]pyrrolo[2,1-f][1,2,4]triazine-7-carboxamide trifluoroacetate], the 50% inhibitory concentration (IC50) was found to be 819 nM. Consider `N[C@H]1CCCC[C@H]1Nc1ncc2ccc(C(=O)Nc3cnn(CCO)c3)n2n1` [Example 167, 2-{[(1R,2S)-2-aminocyclohexyl]amino}-N-[1-(2-hydroxyethyl)-1H-pyrazol-4-yl]pyrrolo[2,1-f][1,2,4]triazine-7-carboxamide trifluoroacetate], for which half-maximal inhibition (IC50) required 178 nM. Molecule `Cn1cc(NC(=O)c2ccc3cnc(N4C[C@@H]5CN[C@@H](C5)C4)nn23)c(C#N)n1` (single isomer, unassigned) [Example 113, N-(3-cyano-1-methyl-1H-pyrazol-4-yl)-2-[(1S,5S)- or (1R,5R)-3,6-diazabicyclo[3.2.1]oct-3-yl]pyrrolo[2,1-f][1,2,4]triazine-7-carboxamide] returned a 50% inhibitory concentration (IC50) of 85 nM. Molecule `Cn1cc(NC(=O)c2ccc3cnc(N4C[C@@H](N)C[C@@H](F)C4)nn23)c(C(F)F)n1` [Example 151, 2-[(3S,5R)-3-amino-5-fluoropiperidin-1-yl]-N-[3-(difluoromethyl)-1-methyl-1H-pyrazol-4-yl]pyrrolo[2,1-f][1,2,4]triazine-7-carboxamide formate] had a 50% inhibitory concentration (IC50) of 0.8 nM. Regarding `O=C(Nc1cscc1Cl)c1ccc2cnc(N3C[C@H]4CC[C@@H]3CN4)nn12` (single isomer, unassigned) [Example 108, N-(4-chlorothiophen-3-yl)-2-[(1S,4S)- or (1R,4R)-2,5-diazabicyclo[2.2.2]oct-2-yl]pyrrolo[2,1-f][1,2,4]triazine-7-carboxamide trifluoroacetate], the concentration for half-maximal inhibition (IC50) was determined as 198 nM. Molecule `Cn1cc(NC(=O)c2ccc3cnc(N4CCNCC5(CC5)C4)nn23)c(C(F)F)n1` [Example 20, 2-(5,8-diazaspiro[2.6]non-5-yl)-N-[3-(difluoromethyl)-1-methyl-1H-pyrazol-4-yl]pyrrolo[2,1-f][1,2,4]triazine-7-carboxamide trifluoroacetate] gave an IC50 of 2 nM.

Turning to `O=C(Nc1ccccc1Br)c1ccc2cnc(N3C[C@H]4CC[C@@H]3CN4)nn12` (single isomer, unassigned) [Example 77, N-(2-bromophenyl)-2-[(1S,4S)- or (1R,4R)-2,5-diazabicyclo[2.2.2]oct-2-yl]pyrrolo[2,1-f][1,2,4]triazine-7-carboxamide trifluoroacetate], half-maximal inhibition (IC50) was put at 1960 nM. In the case of `Cn1cc(NC(=O)c2ccc3cnc(N4C[C@@H]5CNC[C@H]4C5)nn23)c(C#N)n1` (single isomer, unassigned) [Example 135, N-(3-cyano-1-methyl-1H-pyrazol-4-yl)-2-[(1R,5S)- or (1S,5R)-3,6-diazabicyclo[3.2.1]oct-6-yl]pyrrolo[2,1-f][1,2,4]triazine-7-carboxamide], the 50% inhibitory concentration (IC50) amounted to 867 nM. The same measure for `Cn1cc(NC(=O)c2ccc3cnc(N4CC5CCC(C4)N5)nn23)c(C(F)F)n1` [Example 83, 2-(3,8-diazabicyclo[3.2.1]oct-3-yl)-N-[3-[difluoromethyl)-1-methyl-1H-pyrazol-4-yl]pyrrolo[2,1-f][1,2,4]triazine-7-carboxamide trifluoroacetate]: 2 nM; for `N#Cc1ccccc1NC(=O)c1ccc2cnc(N3CCCNCC3)nn12` [Example 59, N-(2-cyanophenyl)-2-(1,4-diazepan-1-yl)pyrrolo[2,1-f][1,2,4]triazine-7-carboxamide trifluoroacetate]: 4270 nM; for `O=C(Nc1cscc1C(F)F)c1ccc2cnc(N3C[C@@H]4CC[C@H]3CN4)nn12` (single isomer, unassigned) [Example 80, 2-[(1S,4S)- or (1R,4R)-2,5-diazabicyclo[2.2.2]oct-2-yl]-N-[4-(difluoromethyl)thiophen-3-yl]pyrrolo[2,1-f][1,2,4]triazine-7-carboxamide trifluoroacetate]: 172 nM. As for `N#Cc1ccccc1NC(=O)c1ccc2cnc(N3C[C@@H]4CC[C@H]3CN4)nn12` (single isomer, unassigned) [Example 74, N-(2-cyanophenyl)-2-[(1S,4S)- or (1R,4R)-2,5-diazabicyclo[2.2.2]oct-2-yl]pyrrolo[2,1-f][1,2,4]triazine-7-carboxamide trifluoroacetate], 850 nM corresponded to half-maximal inhibition (IC50). On to `O=C(Nc1ccsc1Br)c1ccc2cnc(N3C[C@@H]4CC[C@H]3CN4)nn12` (single isomer, unassigned) [Example 48, N-(2-bromothiophen-3-yl)-2-[(1S,4S)- or (1R,4R)-2,5-diazabicyclo[2.2.2]oct-2-yl]pyrrolo[2,1-f][1,2,4]triazine-7-carboxamide trifluoroacetate], for which half-maximal inhibition (IC50) was put at 1650 nM. `Cn1cc(NC(=O)c2ccc3cnc(N4C[C@H]5CN[C@H](C5)C4)nn23)c(C#N)n1` (single isomer, unassigned) [Example 114, N-(3-cyano-1-methyl-1H-pyrazol-4-yl)-2-[(1S,5S)- or (1R,5R)-3,6-diazabicyclo[3.2.1]oct-3-yl]pyrrolo[2,1-f][1,2,4]triazine-7-carboxamide] yielded a half-maximal inhibitory concentration (IC50) of 390 nM. `Cn1cc(NC(=O)c2ccc3cnc(N[C@H]4CC(F)(F)CC[C@H]4N)nn23)c(C(F)F)n1` (single isomer, unassigned) [Example 130, 2-{[(1S,2R)- or (1R,2S)-2-amino-5,5-difluorocyclohexyl]amino}-N-[3-(difluoromethyl)-1-methyl-1H-pyrazol-4-yl]pyrrolo[2,1-f][1,2,4]triazine-7-carboxamide] showed an IC50 of 668 nM.

As for `Cn1cc(NC(=O)c2ccc3cnc(N[C@H]4CNC[C@@H](F)C4)nn23)c(C(F)F)n1` [Example 159, N-[3-(difluoromethyl)-1-methyl-1H-pyrazol-4-yl]-2-{[(3R,5S)-5-fluoropiperidin-3-yl]amino}pyrrolo[2,1-f][1,2,4]triazine-7-carboxamide], the half-maximal inhibitory concentration (IC50) is 0.5 nM. For the molecule `Cn1cc(NC(=O)c2ccc3cnc(N[C@@H]4CC(F)(F)CC[C@@H]4N)nn23)c(C(F)(F)F)n1` (single isomer, unassigned) [Example 131, 2-{[(1S,2R)- or (1R,2S)-2-amino-5,5-difluorocyclohexyl]amino}-N-[1-methyl-3-(trifluoromethyl)-1H-pyrazol-4-yl]pyrrolo[2,1-f][1,2,4]triazine-7-carboxamide trifluoroacetate], half-maximal inhibition (IC50) was put at 4 nM. Turning to `Cn1cc(NC(=O)c2ccc3cnc(N[C@@H]4CCCNC4)nn23)c(C(F)F)n1` [Example 16, N-[3-(difluoromethyl)-1-methyl-1H-pyrazol-4-yl]-2-[(3R)-piperidin-3-ylamino]pyrrolo[2,1-f][1,2,4]triazine-7-carboxamide trifluoroacetate], the IC50 is 1 nM. Turning to `Cn1cc(NC(=O)c2ccc3cnc(N4CCCNCC4)nn23)c(Cl)n1` [Example 26, N-(3-chloro-1-methyl-1H-pyrazol-4-yl)-2-(1,4-diazepan-1-yl)pyrrolo[2,1-f][1,2,4]triazine-7-carboxamide trifluoroacetate], half-maximal inhibition (IC50) was put at 61 nM.
